Data on two compounds can be found in patent US5932606A, “Pyrazinone, pyridinone, piperidine and pyrrolidine thrombin inhibitors” (Merck & Co., Inc., priority 1998, dated 1999).

Square brackets hold non-standard residues; d marks the D form. Peptide text beside a SMILES is read from it. * marks the point of attachment. AFC = O=c1cc(C(F)(F)F)c2ccc(N*)cc2o1; pNA = O=[N+]([O-])c1ccc(N*)cc1; Cbz = O=C(OCc1ccccc1)*; Sar = CNCC(=O)O

One experiment relates to thrombin. Description: More sensitive thrombin activity assay with fluorogenic substrate Z-GPR-afc (fluorescence at 500 nm). It is filed as biochemical, human. The settings on record: excitation at 400 nm. The procedure: (§1) Assays of human a-thrombin and human trypsin were performed at 25° C. in 0.05 M TRIS buffer pH 7.4, 0.15 M NaCl, 0.1% PEG. Trypsin assays also contained 1 mM CaCl2.
In certain studies with potent inhibitors (Ki <10 nM) where the degree of inhibition of thrombin was high, a more sensitive activity assay was employed. […] Concentrations of stock solutions of Z-GPR-afc were determined from measurements of absorbance at 380 nm of the 7-amino-4-trifluoromethyl coumarin produced upon complete hydrolysis of an aliquot of the stock solution by thrombin.
(§2) Activity assays were performed by diluting a stock solution of substrate at least tenfold to a final concentration ≤0.5 Km into a solution containing enzyme or enzyme equilibrated with inhibitor. Times required to achieve equilibration between enzyme and inhibitor were determined in control experiments. Initial velocities of product formation in the absence (Vo) or presence of inhibitor (Vi) were measured. Assuming competitive inhibition, and that unity is negligible compared Km /[S], […] (where [S], [I], and e respectively represent the total concentrations, of substrate, inhibitor and enzyme), the equilibrium constant (Ki) for dissociation of the inhibitor from the enzyme can be obtained from the dependence of Vo /Vi on [I] shown in equation 1.

In another experiment the test system is human a-thrombin. Kind of experiment: In vitro assay for determining proteinase inhibition, thrombin (p-nitroanilide substrate sar-PR-pna, 405 nm). It counts as biochemical. The settings on record: 25° C., pH 7.4. The procedure: (§3) In Vitro Assay for Determining Proteinase Inhibition
as §1, §2

The subject of a further experiment is human trypsin. Kind of experiment: In vitro assay for determining proteinase inhibition, trypsin (p-nitroanilide substrate sar-PR-pna, 405 nm). It counts as biochemical. Conditions: 25° C., pH 7.4, 1 mM CaCl2. The procedure:
as §3, §1, §2

As usually defined, the Km is the substrate concentration at which the rate is half of its maximum. `N=C(N)NCCC[C@H](NC(=O)[C@@H]1CCCN1C(=O)CNC(=O)OCc1ccccc1)C(=O)Nc1ccc2c(C(F)(F)F)cc(=O)oc2c1` [Z-GPR-afc, Cbz-Gly-Pro-Arg-7-amino-4-trifluoromethylcoumarin] (Cbz-Gly-Pro-Arg-{AFC}): the Km with thrombin was 27 µM. As for `CNCC(=O)N1CCC[C@H]1C(=O)N[C@@H](CCCNC(=N)N)C(=O)Nc1ccc([N+](=O)[O-])cc1` [sar-PR-pna, sarcosine-Pro-Arg-p-nitroanilide] (H-[Sar]-Pro-Arg-pNA), the Km in the experiment on human a-thrombin was determined as 125 µM; in the experiment with human trypsin, 59 µM.
